We go through three compounds from paper PMC4457528, “Identification of Novel Small Molecule Inhibitors of Oncogenic RET Kinase” (PLoS ONE, 2015).

Each structure is given as a SMILES string. Read-outs that look alike come from different tables or passages of the source.

Assay in all cases: KinomeScan kinase panel, single concentration 10 µM
Common to all, as to assay type: binding

In test [1] the target is T1, KinomeScan kinase panel (Homo sapiens, UniProt Q86Z02).
T1 construct: purchased DiscoveRx (KinomeScan)
The settings on record: HIPK1, 10 µM; read-out: score (%).

Test [2] has as its target T2, KinomeScan kinase panel (Homo sapiens, UniProt Q07002).
T2 construct: purchased DiscoveRx (KinomeScan)
The note with it: PCTK3, 10 µM; read-out: score (%).

For test [3], the target named is T3, KinomeScan kinase panel (Homo sapiens, UniProt P06239).
T3 construct: purchased DiscoveRx (KinomeScan)
T3 sequence (P06239 whole entry): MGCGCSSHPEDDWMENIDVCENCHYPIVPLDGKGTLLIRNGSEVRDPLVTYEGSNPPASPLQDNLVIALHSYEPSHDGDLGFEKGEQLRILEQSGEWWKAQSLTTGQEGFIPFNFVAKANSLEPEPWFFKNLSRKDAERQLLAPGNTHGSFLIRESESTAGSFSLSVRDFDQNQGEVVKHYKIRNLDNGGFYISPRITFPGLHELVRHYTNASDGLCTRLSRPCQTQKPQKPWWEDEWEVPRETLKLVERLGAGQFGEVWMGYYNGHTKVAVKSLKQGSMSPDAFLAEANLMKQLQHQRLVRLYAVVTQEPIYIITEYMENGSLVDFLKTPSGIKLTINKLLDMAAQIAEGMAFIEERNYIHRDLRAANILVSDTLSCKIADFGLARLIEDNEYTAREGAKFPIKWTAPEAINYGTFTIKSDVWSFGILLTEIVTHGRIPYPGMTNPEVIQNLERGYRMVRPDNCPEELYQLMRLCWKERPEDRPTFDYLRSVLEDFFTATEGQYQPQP
The settings on record: LCK, 10 µM; read-out: score (%).

The target of test [4] is T4, KinomeScan kinase panel (Homo sapiens, UniProt P10721).
T4 construct: purchased DiscoveRx (KinomeScan)
The settings on record: KIT, 10 µM; read-out: score (%).

Test [5] has as its target T5, KinomeScan kinase panel (Homo sapiens, UniProt Q59H18).
T5 construct: purchased DiscoveRx (KinomeScan)
T5 sequence (Q59H18 1-835): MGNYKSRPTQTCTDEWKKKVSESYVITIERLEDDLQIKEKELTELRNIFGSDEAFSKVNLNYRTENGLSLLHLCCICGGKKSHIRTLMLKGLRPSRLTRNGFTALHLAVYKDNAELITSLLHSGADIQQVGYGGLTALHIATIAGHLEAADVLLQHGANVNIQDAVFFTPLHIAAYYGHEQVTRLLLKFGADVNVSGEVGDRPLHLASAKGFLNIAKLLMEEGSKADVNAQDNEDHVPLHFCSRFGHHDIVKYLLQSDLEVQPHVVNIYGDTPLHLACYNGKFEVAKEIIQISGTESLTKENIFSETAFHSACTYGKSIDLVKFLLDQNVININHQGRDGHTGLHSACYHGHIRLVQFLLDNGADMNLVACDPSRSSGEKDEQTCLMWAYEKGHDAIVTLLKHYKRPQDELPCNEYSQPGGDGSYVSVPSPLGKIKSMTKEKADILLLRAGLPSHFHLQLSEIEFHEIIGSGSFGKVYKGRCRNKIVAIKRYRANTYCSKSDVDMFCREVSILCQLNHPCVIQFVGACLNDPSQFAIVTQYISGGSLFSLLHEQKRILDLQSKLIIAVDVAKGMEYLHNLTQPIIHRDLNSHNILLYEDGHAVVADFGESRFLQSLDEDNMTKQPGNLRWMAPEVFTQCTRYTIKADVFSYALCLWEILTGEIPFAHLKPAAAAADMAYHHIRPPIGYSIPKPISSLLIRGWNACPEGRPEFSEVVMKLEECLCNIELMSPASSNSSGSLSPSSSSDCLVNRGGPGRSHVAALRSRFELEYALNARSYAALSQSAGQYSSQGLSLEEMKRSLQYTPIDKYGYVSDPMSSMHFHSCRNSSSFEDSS
The settings on record: 10 µM, read-out: score (%).

In test [6] the target is T6, KinomeScan kinase panel (Homo sapiens, UniProt Q96GD4).
T6 construct: purchased DiscoveRx (KinomeScan)
T6 sequence (Q96GD4 whole entry): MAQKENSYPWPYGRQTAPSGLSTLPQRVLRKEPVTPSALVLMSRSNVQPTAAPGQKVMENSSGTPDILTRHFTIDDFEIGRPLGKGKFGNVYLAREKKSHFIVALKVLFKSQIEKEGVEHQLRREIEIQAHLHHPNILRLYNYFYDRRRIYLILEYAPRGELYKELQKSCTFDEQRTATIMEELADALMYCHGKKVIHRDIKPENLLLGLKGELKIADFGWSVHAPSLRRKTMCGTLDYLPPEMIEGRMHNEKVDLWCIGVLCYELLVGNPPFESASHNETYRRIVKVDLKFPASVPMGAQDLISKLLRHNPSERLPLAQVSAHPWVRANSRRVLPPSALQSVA
The settings on record: AURKB, 10 µM; read-out: score (%).

In test [7] the target is T7, KinomeScan kinase panel (Homo sapiens, UniProt P51451).
T7 construct: purchased DiscoveRx (KinomeScan)
T7 sequence (P51451 whole entry): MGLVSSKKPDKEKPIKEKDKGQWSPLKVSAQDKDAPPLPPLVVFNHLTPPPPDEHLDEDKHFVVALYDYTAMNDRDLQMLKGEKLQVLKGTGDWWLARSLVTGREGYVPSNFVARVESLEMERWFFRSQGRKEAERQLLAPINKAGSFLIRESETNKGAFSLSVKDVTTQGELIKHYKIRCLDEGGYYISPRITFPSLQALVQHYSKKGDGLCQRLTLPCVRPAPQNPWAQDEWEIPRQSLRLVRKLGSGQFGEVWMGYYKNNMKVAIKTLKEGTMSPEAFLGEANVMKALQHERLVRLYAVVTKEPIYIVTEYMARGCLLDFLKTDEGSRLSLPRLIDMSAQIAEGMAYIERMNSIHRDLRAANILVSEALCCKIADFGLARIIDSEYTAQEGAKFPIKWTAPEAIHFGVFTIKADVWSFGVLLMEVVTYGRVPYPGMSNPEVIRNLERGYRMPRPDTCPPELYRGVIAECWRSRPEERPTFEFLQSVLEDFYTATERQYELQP
The note with it: BLK, 10 µM; read-out: score (%).

In test [8] the target is T8, KinomeScan kinase panel (Homo sapiens, UniProt Q16659).
T8 construct: purchased DiscoveRx (KinomeScan)
T8 sequence (Q16659 whole entry): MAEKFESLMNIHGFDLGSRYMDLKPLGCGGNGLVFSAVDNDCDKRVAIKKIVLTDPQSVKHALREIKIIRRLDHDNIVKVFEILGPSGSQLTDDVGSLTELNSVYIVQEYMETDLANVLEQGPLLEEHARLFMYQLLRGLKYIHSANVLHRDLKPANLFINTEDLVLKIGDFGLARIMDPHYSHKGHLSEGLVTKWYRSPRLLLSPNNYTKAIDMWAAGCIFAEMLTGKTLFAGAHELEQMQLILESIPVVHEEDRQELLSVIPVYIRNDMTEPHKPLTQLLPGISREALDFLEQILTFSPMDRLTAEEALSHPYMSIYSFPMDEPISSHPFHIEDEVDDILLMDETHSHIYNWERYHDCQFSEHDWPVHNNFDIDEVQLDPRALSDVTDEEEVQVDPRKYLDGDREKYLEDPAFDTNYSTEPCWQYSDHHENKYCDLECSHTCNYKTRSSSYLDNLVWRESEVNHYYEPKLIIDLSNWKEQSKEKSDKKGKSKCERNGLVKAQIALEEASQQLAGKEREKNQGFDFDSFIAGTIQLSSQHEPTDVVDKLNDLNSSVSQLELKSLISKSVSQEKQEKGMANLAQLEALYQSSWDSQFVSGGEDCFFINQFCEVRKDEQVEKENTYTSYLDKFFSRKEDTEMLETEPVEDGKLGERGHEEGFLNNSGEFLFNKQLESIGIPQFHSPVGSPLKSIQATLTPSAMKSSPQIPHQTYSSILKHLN
The settings on record: ERK3, 10 µM; read-out: score (%).

Test [9] has as its target T9, KinomeScan kinase panel (Homo sapiens, UniProt P15056, V600E).
T9 construct: purchased DiscoveRx (KinomeScan)
The note with it: BRAF(V600E), 10 µM; read-out: score (%).

The target of test [10] is T10, KinomeScan kinase panel (Homo sapiens, UniProt P42684).
T10 construct: purchased DiscoveRx (KinomeScan)
The settings on record: ABL2, 10 µM; read-out: score (%).

Test [11] addresses T11, KinomeScan kinase panel (Homo sapiens, UniProt O94806).
T11 construct: purchased DiscoveRx (KinomeScan)
T11 sequence (O94806 1-890): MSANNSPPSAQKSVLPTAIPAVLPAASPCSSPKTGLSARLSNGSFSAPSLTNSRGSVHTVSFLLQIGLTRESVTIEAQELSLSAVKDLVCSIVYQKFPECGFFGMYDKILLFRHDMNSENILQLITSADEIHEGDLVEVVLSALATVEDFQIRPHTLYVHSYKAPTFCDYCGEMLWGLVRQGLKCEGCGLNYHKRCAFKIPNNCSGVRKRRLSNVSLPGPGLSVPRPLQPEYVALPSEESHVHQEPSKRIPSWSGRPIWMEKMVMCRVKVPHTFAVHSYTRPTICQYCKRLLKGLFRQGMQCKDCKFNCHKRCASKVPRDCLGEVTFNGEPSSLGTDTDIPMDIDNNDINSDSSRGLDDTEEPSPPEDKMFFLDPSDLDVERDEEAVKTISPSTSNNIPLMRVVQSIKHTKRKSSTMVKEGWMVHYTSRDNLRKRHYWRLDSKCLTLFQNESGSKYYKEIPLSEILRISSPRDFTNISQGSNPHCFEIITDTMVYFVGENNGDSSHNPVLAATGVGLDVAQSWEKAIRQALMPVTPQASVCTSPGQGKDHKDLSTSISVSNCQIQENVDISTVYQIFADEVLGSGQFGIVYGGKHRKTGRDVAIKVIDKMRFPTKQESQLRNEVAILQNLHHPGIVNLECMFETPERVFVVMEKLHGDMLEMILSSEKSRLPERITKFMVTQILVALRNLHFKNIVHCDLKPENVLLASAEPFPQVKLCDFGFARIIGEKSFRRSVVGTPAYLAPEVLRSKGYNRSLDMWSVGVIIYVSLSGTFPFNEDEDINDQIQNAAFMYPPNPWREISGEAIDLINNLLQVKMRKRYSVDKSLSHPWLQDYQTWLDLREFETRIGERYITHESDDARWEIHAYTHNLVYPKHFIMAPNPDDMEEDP
The settings on record: read-out: score (%).

In test [12] the target is T12, KinomeScan kinase panel (Homo sapiens, UniProt P29376).
T12 construct: purchased DiscoveRx (KinomeScan)
T12 sequence (P29376 17-864): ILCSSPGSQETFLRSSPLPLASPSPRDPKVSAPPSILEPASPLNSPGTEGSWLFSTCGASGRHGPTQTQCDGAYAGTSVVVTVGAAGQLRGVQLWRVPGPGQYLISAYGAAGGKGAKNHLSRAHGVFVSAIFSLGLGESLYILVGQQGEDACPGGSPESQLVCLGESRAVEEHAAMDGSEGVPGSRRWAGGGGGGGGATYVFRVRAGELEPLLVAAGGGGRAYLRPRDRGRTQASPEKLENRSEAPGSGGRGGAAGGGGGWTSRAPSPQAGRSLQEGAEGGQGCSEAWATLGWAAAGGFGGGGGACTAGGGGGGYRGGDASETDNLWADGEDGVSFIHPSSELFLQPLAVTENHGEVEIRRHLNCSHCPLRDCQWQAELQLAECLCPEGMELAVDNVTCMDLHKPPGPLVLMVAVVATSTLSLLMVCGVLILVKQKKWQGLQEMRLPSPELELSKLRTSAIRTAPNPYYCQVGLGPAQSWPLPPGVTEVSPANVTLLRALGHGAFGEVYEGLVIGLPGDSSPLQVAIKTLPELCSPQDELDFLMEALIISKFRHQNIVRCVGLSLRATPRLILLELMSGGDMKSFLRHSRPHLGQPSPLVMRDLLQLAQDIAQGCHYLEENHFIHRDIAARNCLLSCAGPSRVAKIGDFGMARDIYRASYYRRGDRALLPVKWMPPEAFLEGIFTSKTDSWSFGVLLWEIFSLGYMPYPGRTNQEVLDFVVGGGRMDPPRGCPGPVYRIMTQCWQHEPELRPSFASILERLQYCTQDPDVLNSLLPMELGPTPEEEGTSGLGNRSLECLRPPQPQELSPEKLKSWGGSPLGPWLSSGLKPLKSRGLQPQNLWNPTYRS
The settings on record: LTK, 10 µM; read-out: score (%).

T9 sequence (P15056 whole entry V600E): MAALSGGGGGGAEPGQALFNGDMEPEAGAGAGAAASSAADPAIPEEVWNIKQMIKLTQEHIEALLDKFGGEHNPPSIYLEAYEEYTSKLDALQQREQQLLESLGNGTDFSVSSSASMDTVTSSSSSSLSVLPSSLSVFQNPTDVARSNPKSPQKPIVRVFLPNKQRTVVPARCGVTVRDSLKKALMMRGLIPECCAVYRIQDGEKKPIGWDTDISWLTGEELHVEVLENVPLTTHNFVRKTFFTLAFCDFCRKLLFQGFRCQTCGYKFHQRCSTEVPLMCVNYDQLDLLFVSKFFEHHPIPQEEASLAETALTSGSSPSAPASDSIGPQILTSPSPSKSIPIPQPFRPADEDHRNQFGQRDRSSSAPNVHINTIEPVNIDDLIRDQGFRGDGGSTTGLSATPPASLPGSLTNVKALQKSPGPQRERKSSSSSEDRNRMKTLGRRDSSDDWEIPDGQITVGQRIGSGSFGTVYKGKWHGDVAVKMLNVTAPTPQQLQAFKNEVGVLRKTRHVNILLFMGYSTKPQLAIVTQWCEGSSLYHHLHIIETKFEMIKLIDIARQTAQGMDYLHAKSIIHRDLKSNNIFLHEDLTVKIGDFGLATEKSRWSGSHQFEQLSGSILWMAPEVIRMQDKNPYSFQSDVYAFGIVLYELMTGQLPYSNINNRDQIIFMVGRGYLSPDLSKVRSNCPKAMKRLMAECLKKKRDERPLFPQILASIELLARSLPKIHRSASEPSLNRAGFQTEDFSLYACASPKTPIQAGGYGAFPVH
T2 sequence (Q07002 whole entry): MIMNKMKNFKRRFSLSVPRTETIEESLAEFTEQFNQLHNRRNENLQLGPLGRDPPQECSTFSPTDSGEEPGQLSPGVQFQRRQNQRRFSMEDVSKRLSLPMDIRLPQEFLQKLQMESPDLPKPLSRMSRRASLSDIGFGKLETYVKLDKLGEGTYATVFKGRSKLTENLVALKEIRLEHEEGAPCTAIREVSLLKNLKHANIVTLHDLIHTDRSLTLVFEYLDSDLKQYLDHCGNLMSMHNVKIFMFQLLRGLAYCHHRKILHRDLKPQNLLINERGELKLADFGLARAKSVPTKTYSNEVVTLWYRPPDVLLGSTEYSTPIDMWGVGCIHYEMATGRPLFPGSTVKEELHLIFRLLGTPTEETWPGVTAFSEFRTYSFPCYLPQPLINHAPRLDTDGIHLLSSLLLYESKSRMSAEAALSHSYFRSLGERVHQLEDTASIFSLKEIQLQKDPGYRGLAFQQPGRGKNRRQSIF

As to `CCN1CCN(Cc2ccc(NC(=O)c3ccc(C)c(NC(=O)c4cncc(-c5cccs5)c4)c3)cc2C(F)(F)F)CC1` [ALW-II-41-27], the remaining binding at 10 µM was > 30% on KinomeScan kinase panel [1]; > 30% on KinomeScan kinase panel [2]; 0.2% at KinomeScan kinase panel [3]; 0% at KinomeScan kinase panel [4]; 3.8% on KinomeScan kinase panel [5] (kinase TNNI3K); > 30% at KinomeScan kinase panel [6]. Besides, the remaining binding at 10 µM is 0.1% at KinomeScan kinase panel [7]; > 30% on KinomeScan kinase panel [8]; 0.55% on KinomeScan kinase panel [9]; 0.1% at KinomeScan kinase panel [10]; > 30% on KinomeScan kinase panel [11] (PRKD3, 10 µM); > 30% at KinomeScan kinase panel [12].

`CCN1CCN(Cc2ccc(NC(=O)c3ccc(C)c(/C=C/c4cnc5[nH]ccc5c4Cl)c3)cc2C(F)(F)F)CC1` [HG-6-63-01, (E)-3-(2-(4-chloro-1H-pyrrolo[2,3-b]pyridin-5-yl)vinyl)-N-(4-((4-ethylpiperazin-1-yl)methyl)-3-(trifluoromethyl)phenyl)-4-methylbenzamide]: the remaining binding at 10 µM is > 30% on KinomeScan kinase panel [1]; > 30% on KinomeScan kinase panel [2]; 0.1% on KinomeScan kinase panel [3]; 0% on KinomeScan kinase panel [4]; 0.9% on KinomeScan kinase panel [5] (TNNI3K); 6.6% on KinomeScan kinase panel [6]. For the same compound, the remaining binding at 10 µM at KinomeScan kinase panel [7] was 0.2%; on KinomeScan kinase panel [8], > 30%; at KinomeScan kinase panel [9], 0.2%; at KinomeScan kinase panel [10] it was 0.1%; at KinomeScan kinase panel [11] (PRKD3, 10 µM), > 30%; at KinomeScan kinase panel [12], > 30%.

On to `CCN1CCN(Cc2ccc(NC(=O)c3ccc(C)c(C#Cc4cccnc4)c3)cc2C(F)(F)F)CC1` [XMD15-44], for which the remaining binding at 10 µM on KinomeScan kinase panel [1] was > 30%; at KinomeScan kinase panel [2] it was 6.2%; on KinomeScan kinase panel [3], 0.05%; at KinomeScan kinase panel [4], 0%; on KinomeScan kinase panel [5] (kinase TNNI3K), 0%; on KinomeScan kinase panel [6] it was 24%. The remaining binding at 10 µM at KinomeScan kinase panel [7] was 0%; on KinomeScan kinase panel [8] it was > 30%; on KinomeScan kinase panel [9], 0.05%; on KinomeScan kinase panel [10], 0.05%; at KinomeScan kinase panel [11] (kinase PRKD3, 10 µM), 22%; at KinomeScan kinase panel [12], 4.5%.
